Data published in the NIST ThermoML archive (doi:10.1021/je300405a).

Details: Liquid; for speed of sound: Pulse-echo method; for mass density: Vibrating tube method

CCCCCCCCCC(=O)OC [methyl decanoate]
Details	mass density [kg/m3]	speed of sound [m/s]
283.15 K, 101.3 kPa	–	1362.6
283.15 K, 10000 kPa	–	1408.9
283.15 K, 20000 kPa	–	1452.2
283.15 K, 30000 kPa	–	1493.2
283.15 K, 40000 kPa	–	1531.7
283.15 K, 50000 kPa	–	1568
283.15 K, 60000 kPa	–	1602.6
283.15 K, 70000 kPa	–	1634.5
283.15 K, 80000 kPa	–	1666.4
283.15 K, 90000 kPa	–	1696.9
283.15 K, 100000 kPa	–	1726.9
283.15 K, 110000 kPa	–	1755.2
283.15 K, 120000 kPa	–	1783.4
283.15 K, 130000 kPa	–	1809.5
283.15 K, 140000 kPa	–	1835.9
293.15 K, 101.3 kPa	872.05	–
293.15 K, 10000 kPa	878.88	–
293.15 K, 20000 kPa	885.04	–
293.15 K, 30000 kPa	890.91	–
293.15 K, 40000 kPa	896.46	–
293.15 K, 50000 kPa	901.66	–
293.15 K, 60000 kPa	906.63	–
293.15 K, 70000 kPa	911.3	–
293.15 K, 80000 kPa	915.52	–
293.15 K, 90000 kPa	920.05	–
293.15 K, 100000 kPa	924.3	–
303.15 K, 101.3 kPa	863.6	1287.7
303.15 K, 10000 kPa	870.96	1339.2
303.15 K, 20000 kPa	877.43	1385.8
303.15 K, 30000 kPa	883.54	1429.6
303.15 K, 40000 kPa	889.26	1470.3
303.15 K, 50000 kPa	894.61	1508.7
303.15 K, 60000 kPa	899.63	1544.9
303.15 K, 70000 kPa	904.55	1580.2
303.15 K, 80000 kPa	909.11	1614.1
303.15 K, 90000 kPa	913.59	1646.1
303.15 K, 100000 kPa	917.87	1676.9
303.15 K, 110000 kPa	–	1706.8
303.15 K, 120000 kPa	–	1735.1
303.15 K, 130000 kPa	–	1762.8
303.15 K, 140000 kPa	–	1789.2
303.15 K, 150000 kPa	–	1815.2
303.15 K, 170000 kPa	–	1864.9
303.15 K, 190000 kPa	–	1912.7
303.15 K, 210000 kPa	–	1957.6
313.15 K, 101.3 kPa	855.85	–
313.15 K, 10000 kPa	863.12	–
313.15 K, 20000 kPa	869.91	–
313.15 K, 30000 kPa	876.23	–
313.15 K, 40000 kPa	882.19	–
313.15 K, 50000 kPa	887.77	–
313.15 K, 60000 kPa	893.04	–
313.15 K, 70000 kPa	898.12	–
313.15 K, 80000 kPa	902.9	–
313.15 K, 90000 kPa	907.5	–
313.15 K, 100000 kPa	911.9	–
323.15 K, 101.3 kPa	847.65	1214.8
323.15 K, 10000 kPa	855.36	1269.1
323.15 K, 20000 kPa	862.49	1319.3
323.15 K, 30000 kPa	869.02	1365.7
323.15 K, 40000 kPa	875.03	1409
323.15 K, 50000 kPa	880.76	1449.5
323.15 K, 60000 kPa	886.55	1487.8
323.15 K, 70000 kPa	891.71	1524
323.15 K, 80000 kPa	896.69	1558.3
323.15 K, 90000 kPa	901.4	1591.2
323.15 K, 100000 kPa	905.81	1623.3
323.15 K, 110000 kPa	–	1653.9
323.15 K, 120000 kPa	–	1684.6
323.15 K, 130000 kPa	–	1711.9
323.15 K, 140000 kPa	–	1739.6
323.15 K, 150000 kPa	–	1765.9
323.15 K, 170000 kPa	–	1817
323.15 K, 190000 kPa	–	1864.8
323.15 K, 210000 kPa	–	1910.9
333.15 K, 101.3 kPa	839.36	–
333.15 K, 10000 kPa	847.25	–
333.15 K, 20000 kPa	854.44	–
333.15 K, 30000 kPa	861.45	–
333.15 K, 40000 kPa	867.94	–
333.15 K, 50000 kPa	873.98	–
333.15 K, 60000 kPa	879.63	–
333.15 K, 70000 kPa	885.02	–
333.15 K, 80000 kPa	890.12	–
333.15 K, 90000 kPa	894.95	–
333.15 K, 100000 kPa	899.64	–
343.15 K, 101.3 kPa	830.82	1142.8
343.15 K, 10000 kPa	839.54	1202.4
343.15 K, 20000 kPa	847.61	1255.9
343.15 K, 30000 kPa	854.58	1304.9
343.15 K, 40000 kPa	861.37	1350.5
343.15 K, 50000 kPa	867.59	1393.5
343.15 K, 60000 kPa	873.44	1433.7
343.15 K, 70000 kPa	879.04	1471.7
343.15 K, 80000 kPa	884.27	1508.2
343.15 K, 90000 kPa	889.44	1541.7
343.15 K, 100000 kPa	894.26	1574.1
343.15 K, 110000 kPa	–	1606
343.15 K, 120000 kPa	–	1636.2
343.15 K, 130000 kPa	–	1665.9
343.15 K, 140000 kPa	–	1694
343.15 K, 150000 kPa	–	1721.2
343.15 K, 170000 kPa	–	1773.2
343.15 K, 190000 kPa	–	1822
343.15 K, 210000 kPa	–	1868.7
353.15 K, 101.3 kPa	822.35	–
353.15 K, 10000 kPa	831.43	–
353.15 K, 20000 kPa	839.8	–
353.15 K, 30000 kPa	847.35	–
353.15 K, 40000 kPa	854.31	–
353.15 K, 50000 kPa	860.82	–
353.15 K, 60000 kPa	866.96	–
353.15 K, 70000 kPa	872.65	–
353.15 K, 80000 kPa	878.11	–
353.15 K, 90000 kPa	883.27	–
353.15 K, 100000 kPa	888.25	–
363.15 K, 101.3 kPa	814.51	–
363.15 K, 10000 kPa	823.75	1138.5
363.15 K, 20000 kPa	832.39	1195.9
363.15 K, 30000 kPa	840.33	1247.9
363.15 K, 40000 kPa	847.71	1296.3
363.15 K, 50000 kPa	854.36	1341.1
363.15 K, 60000 kPa	860.65	1382.7
363.15 K, 70000 kPa	866.47	1421.6
363.15 K, 80000 kPa	872.03	1458.4
363.15 K, 90000 kPa	877.31	1493.8
363.15 K, 100000 kPa	882.47	1527.4
363.15 K, 110000 kPa	–	1559.7
363.15 K, 120000 kPa	–	1590.9
363.15 K, 130000 kPa	–	1620.7
363.15 K, 140000 kPa	–	1649.4
363.15 K, 150000 kPa	–	1677.2
363.15 K, 170000 kPa	–	1730.6
363.15 K, 190000 kPa	–	1780.4
363.15 K, 210000 kPa	–	1827.2
373.15 K, 101.3 kPa	805.43	–
373.15 K, 10000 kPa	816.05	–
373.15 K, 20000 kPa	825.16	–
373.15 K, 30000 kPa	833.45	–
373.15 K, 40000 kPa	841.07	–
373.15 K, 50000 kPa	848.03	–
373.15 K, 60000 kPa	854.82	–
373.15 K, 70000 kPa	860.9	–
373.15 K, 80000 kPa	866.94	–
373.15 K, 90000 kPa	872.3	–
373.15 K, 100000 kPa	877.6	–
383.15 K, 101.3 kPa	797.49	–
383.15 K, 10000 kPa	808.37	1077.4
383.15 K, 20000 kPa	818.07	1138.6
383.15 K, 30000 kPa	826.67	1193.5
383.15 K, 40000 kPa	834.58	1244.5
383.15 K, 50000 kPa	841.72	1291.3
383.15 K, 60000 kPa	848.65	1334.9
383.15 K, 70000 kPa	855.07	1375.4
383.15 K, 80000 kPa	861.06	1414.2
383.15 K, 90000 kPa	866.74	1450.6
383.15 K, 100000 kPa	872.09	1485.3
383.15 K, 110000 kPa	–	1518.9
383.15 K, 120000 kPa	–	1550.9
383.15 K, 130000 kPa	–	1581.2
383.15 K, 140000 kPa	–	1610.8
383.15 K, 150000 kPa	–	1641
383.15 K, 170000 kPa	–	1692.7
383.15 K, 190000 kPa	–	1743
383.15 K, 210000 kPa	–	1791.1
393.15 K, 101.3 kPa	788.67	–
393.15 K, 10000 kPa	800.06	–
393.15 K, 20000 kPa	810.12	–
393.15 K, 30000 kPa	819.15	–
393.15 K, 40000 kPa	827.46	–
393.15 K, 50000 kPa	834.97	–
393.15 K, 60000 kPa	842.04	–
393.15 K, 70000 kPa	848.64	–
393.15 K, 80000 kPa	854.73	–
393.15 K, 90000 kPa	860.61	–
393.15 K, 100000 kPa	866.13	–
403.15 K, 10000 kPa	–	1017.7
403.15 K, 20000 kPa	–	1083.2
403.15 K, 30000 kPa	–	1141.7
403.15 K, 40000 kPa	–	1194.7
403.15 K, 50000 kPa	–	1242.9
403.15 K, 60000 kPa	–	1288.1
403.15 K, 70000 kPa	–	1330.6
403.15 K, 80000 kPa	–	1370.3
403.15 K, 90000 kPa	–	1407.7
403.15 K, 100000 kPa	–	1442.8
403.15 K, 110000 kPa	–	1476.6
403.15 K, 120000 kPa	–	1509.7
403.15 K, 130000 kPa	–	1541.7
403.15 K, 140000 kPa	–	1571.6
403.15 K, 150000 kPa	–	1600.1
403.15 K, 170000 kPa	–	1655.5
403.15 K, 190000 kPa	–	1706.6
403.15 K, 210000 kPa	–	1754.5
